Test results reported in patent US20250223281A1, “ANTIDIABETIC COMPOUNDS AND COMPOSITIONS” (REZUBIO PHARMACEUTICALS CO., LTD, priority 2022, published 2025).

Biological target: T1, GPR40 (Homo sapiens, UniProt O14842)
T1 construct: expressed in transfected cells; host or cells: HEK293 cells stably expressing GPR40 (Hygromycin selection)
Assay: IP1 accumulation assay in HEK293 cells stably expressing GPR40
Assay type: cell-based
Outline: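 HEK293 cells stably expressing human GPR40 were incubated with compounds (10-point, 3-fold dilution series) for 2 h at 37 °C, then IP1 was detected by HTRF (665/615 nm ratio). Effect was normalised to DMSO blank and AMG-1638 as 100%, and EC50 was derived from dose curves.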

[1] = IP1 accumulation, HEK293 cells stably expressing GPR40, 2 hours at 37° C., % effect relative to AMG-1638, table of Biological Example 1
[2] = Tables A-1a to A-7b (structure-property relationship), obtained by methods of Biological Example 1

T1 sequence (O14842 whole entry): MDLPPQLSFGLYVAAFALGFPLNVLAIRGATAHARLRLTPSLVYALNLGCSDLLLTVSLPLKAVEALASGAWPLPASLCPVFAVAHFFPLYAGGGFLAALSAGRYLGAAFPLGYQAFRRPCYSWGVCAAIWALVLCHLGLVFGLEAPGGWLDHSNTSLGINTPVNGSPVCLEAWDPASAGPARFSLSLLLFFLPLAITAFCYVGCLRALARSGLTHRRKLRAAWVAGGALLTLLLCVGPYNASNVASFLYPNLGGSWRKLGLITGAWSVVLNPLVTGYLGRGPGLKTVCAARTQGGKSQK

Compound	EC50 [1]	EC50 [2]
COc1ccc(F)c(-c2ccc(COc3cccc([C@@H](CC(=O)O)C4CC4)c3)cc2CC(C)(C)Cn2cc(CCCCC(=O)NCCC[N+](C)(CC(=O)[O-])CC(=O)O)nn2)c1 (stereo partly shown) [Example 213]	0.358 µM	–
COc1ccc(C(=O)N(CC(C)(C)CCn2cc(CCCCCCCCC(=O)NCCCN(CC(=O)O)CC(=O)O)nn2)c2cccc(C)n2)c(N2CCC(COc3cc([C@@H](CC(=O)O)C4CC4)ccn3)CC2)c1 [Example 215]	1.36 µM	1.36 µM
COc1ccc(C(=O)N(CC(C)(C)CCn2cc(CCCCCCCCCCCCCCCC(=O)NCCCN(CC(=O)O)CC(=O)O)nn2)c2cccc(C)n2)c(N2CCC(COc3cc([C@@H](CC(=O)O)C4CC4)ccn3)CC2)c1 [Example 216]	0.00048 µM	0.00048 µM
COc1ccc(C(=O)N(CC(C)(C)CCn2cc(CCCCCCCCC(=O)NCCC[N+](C)(CC(=O)[O-])CC(=O)O)nn2)c2cccc(C)n2)c(N2CCC(COc3cc([C@@H](CC(=O)O)C4CC4)ccn3)CC2)c1 (stereo partly shown) [Example 217]	0.683 µM	0.683 µM
COc1ccc(C(=O)N(CC(C)(C)CCn2cc(CCCCCCCCCCCCCCCC(=O)NCCC[N+](C)(CC(=O)[O-])CC(=O)O)nn2)c2cccc(C)n2)c(N2CCC(COc3cc([C@@H](CC(=O)O)C4CC4)ccn3)CC2)c1 (stereo partly shown) [Example 218]	0.00044 µM	0.00044 µM
COc1ccc(F)c(-c2ccc(COc3cccc([C@@H](CC(=O)O)C4CC4)c3)cc2CC(C)(C)Cn2cc(CCCCC(=O)NCCN(CCC(=O)NCCN)CCC(=O)NCCN)nn2)c1 [Example 219]	> 10 µM	–
COc1ccc(F)c(-c2ccc(COc3cccc([C@@H](CC(=O)O)C4CC4)c3)cc2CC(C)(C)Cn2cc(CCCCCCCCC(=O)NCCN(CCC(=O)NCCN)CCC(=O)NCCN)nn2)c1 [Example 220]	> 10 µM	> 10 µM
COc1ccc(C(=O)N(CC(C)(C)CCn2cc(CCCCCCCCC=CCCCCCCCCC(=O)NCCC[N+]34CCN(CC3)CC4)nn2)c2cccc(C)n2)c(N2CCC(COc3cc([C@@H](CC(=O)O)C4CC4)ccn3)CC2)c1 [Example 221]	0.00098 µM	–
